According to US4203986A, “M-Trifluoro-methylphenyl-piperazine” (Metabio-Joullie, priority 1977, dated 1980):
Where two headings read alike, the source gives them in different places.

Legend:
[1] = Acute toxicity in Mice; assay type: in vivo, mice (SWISS, EOPS, NMRI/Han, female); details: for LD50 at 360 h / MTD at 360 h: mouse, in vivo; for LD50 at 360 h: method of KARBER and BEHRENS; for MTD at 360 h: read-out: LD 0 (maximum dose tolerated)
Procedure: The compounds are administered in increasing doses (in arithmetic progression) to groups of five .female. SWISS, EOPS, NMRI/Han mice of the EVIC CEBA strain and having a mean weight of 22 g.
For intravenous administration the compounds are dissolved in distilled water, for oral administration they are suspended in 10% gum arabic solution (volume administered: 0.5 ml/22 g body weight).
The LD 50's are calculated according to the method of KARBER and BEHRENS (B.) (Arch. Exp. Path. Pharmakol. 1935, 177, 379-388).
For each administration method, there is indicated:
LD 0 or maximum dose tolerated.
LD 100 or minimum lethal dose.
The number of animals surviving in the different groups is definitively verified 15 days after administrating the compounds.

[2] = test system: toxicity of amphetamine compounds; experiment: Action on the toxicity of Amphetamine compounds in the mice; assay type: in vivo; details: per os
Procedure: (6) Action on the toxicity of Amphetamine compounds in the mice. (groups of 10 animals)
30 minutes after administration of the test compounds, amphetamine bitartrate is injected interperitioeally at a dose of 10 mg/kg (dose giving substantially 100% mortality) to mice in groups of 10 in boxes 12×18×13 cm. The number of animals surviving 24 hours after the amphetamine administration is noted.

[3] = Test on the cataleptic action in rats; assay type: in vivo; details: p.o., every 30 minutes for 6 hours
Procedure: (7) Test on the cataleptic action in rats (groups of 5 animals)
After administration p.o. of the test compounds, the degree of catalepsy is noted every 30 minutes for 6 hours by the test of crossing of the homolateral feet according to BOISSIER (J.R.) and SIMON (P.) (Therapy, 1963, 18, 1257-1277) and using the following notation:
0=animal which is not cataleptic
132 animal conserving position on one side only
2=animal conserving position on both sides

[4] = test system: coughing induced by aqueous citric acid aerosol; experiment: Antitussive action in the guinea pig (citric acid aerosol); assay type: in vivo
Source text: The technique used is that of SIECKMANN (W.) (in "Notions techniques de Pharmacologie generale" by Michel COLOT, page 75, Masson, Edit, 1972).
The guinea pigs .female. of mean weight 400 g, unanaesthesised, are subjected to the tussigenic effect of aerosols of a 7.5% aqueous citric acid solution. The animals are placed one by one in a cylindrical chamber having at its two extremities two canals, one serving as entrance for the aerosol and the other as its exit.
On the exit tube there is a lateral connection to a MERCURY gas pressure differential gauge joined to an RACIA counter. An adjustable screw clamp placed on the exit tube downstream of the lateral canal permits regulation of the sensitivity of the system such that the normal respiration of the animal only registers very weakly and that displacement of air in the chamber provoked by coughing attack is recorded clearly in the form of vertical traces.
Each guinea pig is first submitted to a control test for 5 minutes. One hour later it receives the test compound. It is replaced in the chamber for 5 minutes, 1 hour after oral administration of the compound.
The number of coughing attacks before and after administration is counted and the percentage inhibition is calculated.

[5] = test system: coughing by stimulation of the superior larynx nerve; experiment: Antitussive action in the cat (stimulation of the superior larynx nerve); assay type: in vivo; details: 12 mg/kg i.v.
Procedure: The cats all thriving, male or female of weight between 1.5 and 2.5 kg (test on 10 cats) are anaesthesised by nembutal at a dose of 30 mg/kg interperitoneally.
A cannula having three branches is placed in the trachea. Two of the branches are connected to a device for registering intratracheal pressure (MERCURY gas pressure gauge connected to an RACIA polygraph) The third branch allows elimination of part of the respiratory volume.
A cannula is placed in the femoral vein for administration of the test substances.
The stimulation parameters are as follows: frequency: 5 cycles per sec, amplitude: 5 millisec, voltage: 4 to 6 volts, duration: 15 to 45 sec. (according to the sensitivity of the animal).
There are carried a minimum of 3 stimulations spaced by 5 minutes and provoking coughing attacks of the same severity. The compound is then administered intravenously. The stimulation is then carried out every 5 minutes. If the compound reduces or suppresses the coughing the stimulation is continued until the reappearance of coughing to approximately the same degree as the initial coughing.
The results are expressed as a percentage reduction in the number of coughs.

In the case of `O=C1CCCCC1CN1CCN(c2cccc(C(F)(F)F)c2)CC1` (centres unmarked) [LJ 1144], the “LD 100 (minimum lethal dose)” value ([1]; intravenous administration) is reported as 75 mg/kg, the LD50 at 360 h ([1]; iv, intravenous administration) is reported as 61 mg/kg and the MTD at 360 h ([1]; iv, intravenous administration) is reported as 37.5 mg/kg. For the same compound, the LD50 at 360 h ([1]; po, oral administration) was 1820 mg/kg, the MTD at 360 h ([1]; po, oral administration) was 1250 mg/kg and the “LD 100 (minimum lethal dose)” value ([1]; oral administration) was 2250 mg/kg. The “toxicity of amphetamine compounds (in words)” value [2] was “reduce the toxicity of amphetamine compounds”, the cataleptic effect [3] was “absence of cataleptic effect” and the inhibition in vivo at 182 mg/kg ([4]; Cavia porcellus, po, 1 h, 182 mg/kg p.o., read-out: Percentages of inhibition of coughing) was 75%. The “antitussive activity (in words)” value ([4]; oral) was “also active if not more active than codeine” and the “% maximum reduction in the number of coughs” value [5] was 85%.
